Values quoted from earlier work, collected in patent US12016851B2, “Modified release pharmaceutical formulations comprising deferiprone” (Chiesi Farmaceutici S.p.A., priority 2022, dated 2024).

Legend:
[1] = monotherapy; Maggio 2002, Galanello 2006
[2] = in vivo

## Cc1c(O)c(=O)ccn1C [Deferiprone, 3-hydroxy-1,2-dimethylpyridin-4-one]
[1]
  improving myocardial siderosis and cardiac function: superior to deferoxamine monotherapy
[2]
  half-life: 2 to 3 h
